Experiments:
[1] = target: Amyloid-beta precursor protein (Homo sapiens, UniProt P05067)
Description: Inhibition of self mediated amyloid beta (1 to 42) aggregation (unknown origin) after 10 hrs by ThT-based fluorescence assay

Acetylcholinesterase = Acetylcholinesterase (Homo sapiens, UniProt P22303)
Description: Inhibition of human AChE assessed as acetylthiocholine hydrolysis

Cholinesterase = Cholinesterase (Homo sapiens, UniProt P06276)
Description: Inhibition of human BChE assessed as acetylthiocholine hydrolysis

Beta-secretase 1 = Beta-secretase 1 (Homo sapiens, UniProt P56817)
Sequence of Beta-secretase 1 (P56817 whole entry): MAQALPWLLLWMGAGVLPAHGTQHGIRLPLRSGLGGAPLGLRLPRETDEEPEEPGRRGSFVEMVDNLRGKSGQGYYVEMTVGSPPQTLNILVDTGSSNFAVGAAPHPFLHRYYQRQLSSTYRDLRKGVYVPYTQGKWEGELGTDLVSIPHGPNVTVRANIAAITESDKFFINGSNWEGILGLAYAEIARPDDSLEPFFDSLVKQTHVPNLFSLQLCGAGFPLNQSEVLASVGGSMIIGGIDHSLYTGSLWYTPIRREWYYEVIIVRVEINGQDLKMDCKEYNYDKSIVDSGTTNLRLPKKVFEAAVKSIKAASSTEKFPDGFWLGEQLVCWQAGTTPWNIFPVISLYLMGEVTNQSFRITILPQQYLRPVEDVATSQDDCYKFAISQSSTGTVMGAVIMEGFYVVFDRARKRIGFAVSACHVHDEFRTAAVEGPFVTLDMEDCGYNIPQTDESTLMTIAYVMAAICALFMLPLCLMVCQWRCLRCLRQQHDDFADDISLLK

Sequence of Cholinesterase (P06276 whole entry): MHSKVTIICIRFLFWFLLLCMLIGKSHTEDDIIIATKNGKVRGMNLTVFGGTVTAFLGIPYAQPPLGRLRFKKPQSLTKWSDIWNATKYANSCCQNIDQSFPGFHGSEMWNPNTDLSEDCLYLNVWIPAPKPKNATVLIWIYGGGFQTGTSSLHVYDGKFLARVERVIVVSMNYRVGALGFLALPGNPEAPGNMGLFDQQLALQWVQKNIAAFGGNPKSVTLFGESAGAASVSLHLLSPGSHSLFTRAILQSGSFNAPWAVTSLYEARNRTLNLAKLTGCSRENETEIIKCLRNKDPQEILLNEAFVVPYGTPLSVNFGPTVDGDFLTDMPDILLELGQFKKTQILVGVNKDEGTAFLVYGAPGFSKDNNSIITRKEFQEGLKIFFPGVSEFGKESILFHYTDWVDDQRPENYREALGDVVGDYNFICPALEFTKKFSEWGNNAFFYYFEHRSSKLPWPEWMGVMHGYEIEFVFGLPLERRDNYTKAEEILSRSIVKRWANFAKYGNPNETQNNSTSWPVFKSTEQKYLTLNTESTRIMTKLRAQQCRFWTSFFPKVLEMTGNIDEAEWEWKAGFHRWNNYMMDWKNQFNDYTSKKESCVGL
Sequence of Amyloid-beta precursor protein (P05067 whole entry): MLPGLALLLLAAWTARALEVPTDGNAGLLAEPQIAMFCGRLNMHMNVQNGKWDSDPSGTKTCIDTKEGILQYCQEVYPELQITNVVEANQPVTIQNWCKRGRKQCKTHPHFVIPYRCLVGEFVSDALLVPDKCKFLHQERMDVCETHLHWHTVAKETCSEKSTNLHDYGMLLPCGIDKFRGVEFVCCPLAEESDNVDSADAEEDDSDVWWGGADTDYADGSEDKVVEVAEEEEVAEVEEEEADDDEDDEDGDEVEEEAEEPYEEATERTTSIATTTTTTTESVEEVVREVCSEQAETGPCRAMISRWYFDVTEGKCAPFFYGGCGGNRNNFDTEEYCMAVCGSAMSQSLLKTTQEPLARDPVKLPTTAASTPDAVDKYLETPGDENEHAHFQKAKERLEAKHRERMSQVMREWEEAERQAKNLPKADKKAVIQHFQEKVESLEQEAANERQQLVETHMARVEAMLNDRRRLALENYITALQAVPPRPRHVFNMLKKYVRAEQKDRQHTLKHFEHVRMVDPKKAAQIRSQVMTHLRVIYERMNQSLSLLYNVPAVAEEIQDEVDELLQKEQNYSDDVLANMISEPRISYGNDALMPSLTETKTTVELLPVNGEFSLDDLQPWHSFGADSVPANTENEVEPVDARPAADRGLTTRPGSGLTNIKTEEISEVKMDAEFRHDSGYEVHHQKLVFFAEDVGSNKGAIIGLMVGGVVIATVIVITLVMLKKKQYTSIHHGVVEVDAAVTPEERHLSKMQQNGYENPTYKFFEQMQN
Sequence of Acetylcholinesterase (P22303 whole entry): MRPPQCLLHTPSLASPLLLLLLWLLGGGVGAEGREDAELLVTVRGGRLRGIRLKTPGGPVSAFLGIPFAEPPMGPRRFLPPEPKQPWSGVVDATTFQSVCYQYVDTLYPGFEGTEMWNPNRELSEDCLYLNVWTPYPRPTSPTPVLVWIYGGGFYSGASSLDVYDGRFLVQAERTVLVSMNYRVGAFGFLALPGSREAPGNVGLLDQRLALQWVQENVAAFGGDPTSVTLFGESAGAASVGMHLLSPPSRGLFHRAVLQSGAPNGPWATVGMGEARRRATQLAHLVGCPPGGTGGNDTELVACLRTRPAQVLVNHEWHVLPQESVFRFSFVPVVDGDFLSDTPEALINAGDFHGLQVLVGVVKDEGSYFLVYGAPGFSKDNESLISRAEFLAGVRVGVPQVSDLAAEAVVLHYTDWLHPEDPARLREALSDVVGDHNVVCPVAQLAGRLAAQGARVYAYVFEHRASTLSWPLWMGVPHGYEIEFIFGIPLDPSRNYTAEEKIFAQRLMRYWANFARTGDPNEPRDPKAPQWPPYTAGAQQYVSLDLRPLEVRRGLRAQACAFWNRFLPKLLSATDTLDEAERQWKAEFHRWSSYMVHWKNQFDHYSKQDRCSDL

SMILES | IC50 [1] [nM] | Ki (Acetylcholinesterase) [nM] | Ki (Cholinesterase) [nM] | IC50 (Beta-secretase 1) [nM]
O=C(NCCCCCNc1c2c(nc3ccccc13)CCCC2)c1cc2ccccc2oc1=O | > 100000 | 34.4 | 31.7 | 40100
COc1ccc2cc(C(=O)NCCCCCNc3c4c(nc5ccccc35)CCCC4)c(=O)oc2c1 |  | 44.3 | 29.8 | 
COc1ccc2oc(=O)c(C(=O)NCCCCCNc3c4c(nc5ccccc35)CCCC4)cc2c1 |  | 39.4 | 34 | 
Cc1ccc2oc(=O)c(C(=O)NCCCCCNc3c4c(nc5ccccc35)CCCC4)cc2c1 |  | 35.8 | 32.4 | 
COc1cc2cc(C(=O)NCCCCCNc3c4c(nc5ccccc35)CCCC4)c(=O)oc2cc1OC |  | 70 | 8.1 | 
O=C(NCCCCCNc1c2c(nc3ccccc13)CCCC2)c1cc2cc(OC(F)(F)F)ccc2oc1=O |  | 76.1 | 32.5 | 
O=C(NCCCCCCNc1c2c(nc3ccccc13)CCCC2)c1cc2ccccc2oc1=O | > 100000 | 16.7 | 16.1 | 17200
COc1ccc2cc(C(=O)NCCCCCCNc3c4c(nc5ccccc35)CCCC4)c(=O)oc2c1 |  | 30.9 | 20.2 | 
COc1ccc2oc(=O)c(C(=O)NCCCCCCNc3c4c(nc5ccccc35)CCCC4)cc2c1 |  | 24.3 | 23.7 | 
Cc1ccc2oc(=O)c(C(=O)NCCCCCCNc3c4c(nc5ccccc35)CCCC4)cc2c1 | 5000 | 30.1 | 23.2 | > 100000
COc1cc2cc(C(=O)NCCCCCCNc3c4c(nc5ccccc35)CCCC4)c(=O)oc2cc1OC |  | 56.1 | 31.2 | 
O=C(NCCCCCCNc1c2c(nc3ccccc13)CCCC2)c1cc2cc(OC(F)(F)F)ccc2oc1=O | 24200 | 59.6 | 17.5 | 22600
O=C(NCCCCCCCNc1c2c(nc3ccccc13)CCCC2)c1cc2ccccc2oc1=O |  | 42.2 | 20 | 
COc1ccc2cc(C(=O)NCCCCCCCNc3c4c(nc5ccccc35)CCCC4)c(=O)oc2c1 |  | 55.2 | 35 | 
COc1ccc2oc(=O)c(C(=O)NCCCCCCCNc3c4c(nc5ccccc35)CCCC4)cc2c1 | 13400 | 50.7 | 34.5 | 20200
Cc1ccc2oc(=O)c(C(=O)NCCCCCCCNc3c4c(nc5ccccc35)CCCC4)cc2c1 | 6100 | 66.1 | 50.9 | 42800
COc1cc2cc(C(=O)NCCCCCCCNc3c4c(nc5ccccc35)CCCC4)c(=O)oc2cc1OC |  | 91.1 | 37.5 | 
O=C(NCCCCCCCNc1c2c(nc3ccccc13)CCCC2)c1cc2cc(OC(F)(F)F)ccc2oc1=O |  | 78.2 | 40 | 
